Assay results reported in patent US10786483B2, “Tumescent contravenom drug delivery” (HK Pharma, priority 2016, dated 2020).
Where two headings read alike, the source gives them in different places.

Assays:
[1] = Description: Heart rates, before, during, and after tumescent infiltration and immediately after liposuction were compared.
[2] = test system: platelet aggregation; conditions: cited from earlier work
[3] = precipitation on mixing acyclovir, lidocaine and epinephrine; format: physicochemical
Description: Some drugs are considered incompatible because of precipitation when mixed together in the same solution. […] This tumescent solution can be safely and painlessly injected subcutaneously into a human patient. This is surprising and unexpected because the FDA approved package insert labeling for acyclovir for IV infusion states explicitly the subcutaneous delivery must be avoided. Similar increased solubility and drug-drug compatibility of mixtures of multiple contravenom drugs can be expected with sufficient tumescent dilution. This is a unique and unexpected advantage of tumescent contravenom delivery.

[4] = test system: sPLA2 activity in serum; conditions: rat serum; read-out: IC50, inhibitory effect on sPLA2 activity in serum; cited from earlier work
[5] = test system: sPLA2 activity in serum; conditions: rabbit serum; read-out: IC50, inhibitory effect on sPLA2 activity in serum; cited from earlier work
[6] = test system: sPLA2 activity in serum; conditions: guinea pig serum; read-out: IC50, inhibitory effect on sPLA2 activity in serum; cited from earlier work
[7] = test system: sPLA2 activity in serum; conditions: human serum; read-out: IC50, inhibitory effect on sPLA2 activity in serum; cited from earlier work
[8] = test system: snake venoms; conditions: mice; cited from earlier work
[9] = tolerance interval analysis, probability that Cmax >=6 μg/mL; design: species or system human; conditions: 99% confidence
Experimental: Tolerance intervals were calculated at a 99% level of confidence.

[10] = 41 procedures, 14 subjects, 19.2 to 52 mg/kg, over the 24-hour study period
Experimental: Volunteers participated in 1 to 2 infiltration studies without liposuction and then one study with tumescent liposuction totally by local anesthesia.
Individual subjects served as their own controls. Large volume (≥500 mL) tumescent infiltration was accomplished using a peristaltic tumescent infiltration pump (HKSurgical.com, San Clemente, Calif.).
Serum samples were obtained from a peripheral vein using an indwelling 20-gauge IV catheter by a 2-syringe sampling technique. The first syringe contained 2 mL saline to flush the IV catheter and then remove and discard 2 mL of blood.
For each subject, the initial infiltration procedures were done without subsequent liposuction, and the final tumescent infiltration was followed by liposuction after allowing at least 1 hour of detumescence for gradual dispersion of subcutaneous tumescent fluid. Tumescent infiltration procedures were separated by at least 1 week. The liposuction aspirate was collected in clear plastic volumetric canisters. After allowing at least 1 hour for gravitational separation of the lipid and aqueous aspirate, the resulting supernatant fat, infranatant blood-tinged tumescent anesthetic solution, and the total aspirate volume were recorded.
AUC∞, Cmax, and Tmax without and with liposuction were compared by the paired t test.

[11] = test system: lymphatic smooth muscle contraction; conditions: rats, applied topically; cited from earlier work
[12] = cited from earlier work
[13] = target: Bee Venom sPLA2 (Apis mellifera, UniProt P00630); conditions: cited from earlier work
Sequence of Bee Venom sPLA2 (P00630 34-167 limits assumed): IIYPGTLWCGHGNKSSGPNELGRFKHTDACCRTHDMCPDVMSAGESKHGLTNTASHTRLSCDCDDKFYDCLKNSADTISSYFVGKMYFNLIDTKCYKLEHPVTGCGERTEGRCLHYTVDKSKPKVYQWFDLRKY

[14] = with liposuction, epinephrine dose 1.6 to 4.3 mg
[15] = without liposuction, epinephrine dose 1.2 to 4.3 mg

CNC[C@H](O)c1ccc(O)c(O)c1 [epinephrine]
clinical evidence of toxicity ([1]; 14 subjects, 41 procedures): no clinical evidence | episodes of tachycardia ([1]; 41 studies, most patients received oral clonidine 0.1 mg): no episodes | mean difference in heart rate before infiltration and after liposuction [1, 14]: +5 | range of difference in heart rate before infiltration and after liposuction [1, 14]: −12 to +33 | mean difference in heart rate before and after infiltration [1, 15]: −3.4 | range of difference in heart rate before and after infiltration [1, 15]: −24 to +17

CCOC(=O)c1ccc(N)cc1 [benzocaine]
platelet aggregation induced by ADP [2]: inhibit

CCCCN1CCCCC1C(=O)Nc1c(C)cccc1C (centres unmarked) [bupivacaine]
platelet aggregation induced by ADP [2]: inhibit

Nc1nc2c(ncn2COCCO)c(=O)[nH]1 [acyclovir]
precipitation on mixing ([3]; 1 gm acyclovir (1 g/20 ml) with 1 gram lidocaine (1 gram/100 ml) with epinephrine (1 mg/L), 120 ml mixture): immediate precipitation | precipitation on mixing ([3]; 1 gm acyclovir and 1 gm lidocaine in 100 ml, 250 ml and 500 ml of saline): precipitation | precipitation on mixing ([3]; 1 gm acyclovir, 1 gm lidocaine and 1 mg epinephrine in 1000 ml of saline): no precipitation

CCc1c(C(=O)C(N)=O)c2c(OCC(=O)O)cccc2n1Cc1ccccc1 [Varespladib]
IC50 [4]: 8.1 nM | IC50 [5]: 5 nM | IC50 [6]: 3.2 nM | IC50 [7]: 6.2 nM | neutralizing a wide variety of snake venoms [8]: effective

CCN(CC)CC(=O)Nc1c(C)cccc1C [lidocaine]
risk of lidocaine serum concentration >6 μg/mL ([9]; No liposuction, 40 mg/kg): 1/750 | risk of lidocaine serum concentration >6 μg/mL ([9]; No liposuction, 50 mg/kg): 1/15 | risk of lidocaine serum concentration >6 μg/mL ([9]; No liposuction, 55 mg/kg): 1/4 | risk of lidocaine serum concentration >6 μg/mL ([9]; No liposuction, […] mg/kg): 1/80 | risk of lidocaine serum concentration >6 μg/mL ([9]; With liposuction, 50 mg/kg): 1/500 | risk of lidocaine serum concentration >6 μg/mL ([9]; With liposuction, 55 mg/kg): 1/100 | lidocaine-associated adverse event ([1]; one subject, body mass index 20, 45 mg/kg without liposuction, approximately 12 hours after infiltration): transient nausea | measured serum lidocaine concentrations, all [10]: < 6 µg/mL | lidocaine concentrations that consistently inhibit in-vitro platelet aggregation ([2]; aggregation induced by ADP, epinephrine and collagen): ≥ 0.5 mg/mL | effect on platelet aggregation ([2]; at safe systemic concentrations (e.g. ≤6 micrograms/ml)): no effect | platelet aggregation induced by ADP [2]: inhibit | lymph transit time [11]: prolong | survival time after injection of venom [11]: increase | recommended maximal dosage, FDA-approved package insert labeling ([12]; lidocaine with epinephrine, infiltration local anesthesia): 7 mg/kg | maximal safe dosage recommended by American Society for Dermatologic Surgery guidelines ([12]; liposuction totally by local anesthesia): 55 mg/kg

CCc1c(C(=O)C(N)=O)c2c(OCC(=O)OC)cccc2n1Cc1ccccc1 [Me-Varespladib, methyl varespladib]
IC50, sPLA2 inhibition [13]: *Indeterminate
